# Reference: patent US20080226596A1, “Therapeutic compositions and methods useful in treating hepatitis” (priority 2006, published 2008)
# Entries after “also recorded” stand apart in the source; their conditions may differ.
# How the values were obtained:
# [1] = test system: Jak2/Stat5 tyrosine phosphorylation; test: IL-3-induced Jak2/Stat5 tyrosine phosphorylation in Baf3 cells; type: cell-based, murine
# Protocol: (§1) For induction of cellular protein phosphorylation by sodium stibogluconate or pervanadate, Baf3 cells were incubated in 0.1% FCS-RPMI 1640 medium at 37° C. for 16 hours. The cells were then washed twice in RPMI 1640 medium and incubated with sodium stibogluconate or pervanandate (0.1 mM) for various times prior to termination by lysing cells in cold lysis buffer (50 mM Tris, pH 7.4; 150 mM NaCl; 0.2 mM Na3VO4; 20 mm NaF; 1% Nonidet P-40; 2 mM PMSF; 20 µg/ml of Aprotinin and 1 mM of sodium molybdic acid). To determine the effect of sodium stibogluconate or potassium antimonyl tartrate on IL-3-induced Jak/Stat phosphorylation, Baf3 cells were deprived of the growth factor for 16 hours in 0.1% FCS RPMI 1640 medium and then incubated with or without sodium stibogluconate or potassium antimonyl tartrate for 10 minutes. IL-3 was next added to the cell suspension and incubated for various times. The Cells were then harvested and lysed in cold lysis buffer at 4° C. for 45 minutes. Total cell lysates (TCL) were separated in SDS-PAGE gels, blotted onto nitrocellulose membrane (Schleicher & Schuell), probed with specific antibodies and detected using an enhanced chemiluminescence kit (ECL, Amersham, Arlington Heights, Ill.).
# [2] = test system: DU145 human prostate carcinoma xenografts; test: DU145 xenografts in nude mice; type: in vivo; conditions: 440 mg/kg daily
# Protocol: The dosage of sodium stibogluconate corresponds to approximately 440 mg Sb/kg body weight (average mouse body weight 27 g), substantially higher than the standard therapeutic dose of 20 mg Sb/kg and the high dose (143 mg Sb/kg) that was clinically used by accident without serious toxicity. This dose of sodium stibogluconate was based on a previous observation in a pilot study that mice could tolerate daily dose of 20 mg Sb (approximately 700-800 mg Sb/kg). […] In light of the relatively rapid rate of clearance of the drug in vivo, 440 mg Sb/kg dosage was used to ensure the detection of the effectiveness of the drug for this initial study.
# For each of the cell lines, each of 16 mice received subcutaneous injection at the chest area of 3×10^6 cells/site (WM9) or 2×10^6 cells/site (DU145), two sites/mouse, on day 0. Mice were separated into four groups of four to receive treatment, injected into the thigh area starting on day 2. Tumor size was measured with a caliper to determine the two perpendicular diameters of each tumor. Tumor volume was calculated using the method of the NCI (length×width 2 in millimeters/2=volume in cubic millimeters). […]
# WiT49-N1 cells = test: WiT49-N1 Wilms tumor cell growth, MTT assay; type: cell-based, human; conditions: single agent, day 6; killing at 100 μg/ml
# Protocol: For cell proliferation assays, cells were grown in 10% FCS culture medium containing various amounts of IFNs and/or sodium stibogluconate in 96 well plates and cultured at 37° C. for 3 or 6 days as indicated. The numbers of viable cells in proliferation assays were determined by MTT assays as described in Phatak et al., J. Immunol. 167, 3391 (2001).
# NB4 cells = test: NB4 Annexin V/propidium iodide assay; type: cell-based, human; conditions: 250 μg/ml, 6 days
# Protocol: Annexin V staining of exposed membrane phospholipid phosphatidylserine (PS) was done using the Annexin V assay kit (Pharmingen, San Diego, Calif.). […] Cells were then washed in PBS twice and stained in binding buffer (10 mM Hepes, pH 7.4; 140 mM NaCl; 2.5 mM CaCl2) containing Annexin V-FITC and propidium iodide for 15 min. The reaction was stopped by adding 10 volumes of binding buffer and analyzed by FACS (Becton Dickinson Facsvantage).
# human peripheral blood = test: ELISPOT of cytokine-positive cells in human peripheral blood treated in vitro; type: cell-based; conditions: comparable conditions
# U251 cells = test: U251 glioma cell growth, MTT assay; type: cell-based, human; conditions: 100 μg/ml, day 6
# Protocol: (§2) NIH3T3 (Yi, et al., Blood 85, 87 (1995)), WM9 (Forsberg, et al., Proc. Nat. Acad Sci. USA 90, 393 (1993)), DU145 (Mickey, et al., Cancer Res. 37, 4049 (1977)), LoVo (Drewinko, et al., Cancer Res. 36, 467 (1976)), HEY (Buick, et al., Cancer Res. 45, 3668 (1985)), U251 (Yoshida, et al., Cancer 50, 410 (1982)), A549 (Giard, et al., J. Natl. Cancer Inst. 51, 1417 (1973)) and SK-N-SH (Helson, et al., Cancer Res. 35, 2594 (1975)) cell lines have been described and were cultured in RPMI 1640 supplemented with 10% fetal calf serum (FCS). For measurement of sodium stibogluconate effects on cell growth in vitro, cells were cultured in the absence (−) or presence (+) of various amounts of sodium stibogluconate for 6 days with viable cells quantified by MTT assays (Mosmann, J. Immunol. Methods 65, 55 (1983)). Percentages of growth inhibition by sodium stibogluconate were calculated (.+−.x
# A549 cells = test: A549 lung cancer cell growth, MTT assay; type: cell-based, human; conditions: 100 μg/ml, day 6
# Protocol: as §2
# Baf3 cells = test: Cellular protein tyrosine phosphorylation in Baf3 cells (Western blot); type: cell-based, murine; conditions: IL-3-deprived Baf3 cells
# Protocol: as §1
smiles,measurement,setting,value
O.O.O.O.O.O.O.O.O.O=C([O-])[C@@H]1[O][Sb]2([O-])([O][Sb]34([OH])[O][C@H]([C@H](O)CO)[C@H]([O]3)[C@H](C(=O)[O-])[O]4)[O][C@H]([C@H](O)CO)[C@@H]1[O]2.[Na+].[Na+].[Na+] [sodium stibogluconate],phosphotyrosine levels of Jak2 and Stat5 relative to cells without drug,"[1]; IL-3 stimulated, drug 10 minutes before, densitometry",about twice
same,Jak2/Stat5 tyrosine phosphorylation by drug alone,"[1]; no IL-3, 37 C 16 hours",failed to induce Jak2/Stat5 tyrosine phosphorylation
same,histology of major organs,[2],unremarkable
same,survival of DU145-inoculated mice,[2]; until the end of the study,survived
same,sensitivity/killing of WiT49-N1 cells,WiT49-N1 cells,sensitive; also recorded: complete or near complete killing
same,Annexin V staining of NB4 cells,NB4 cells,stained positive by Annexin V
same,induction of IL-5+ cells,human peripheral blood,not induced
same,killing of U251 cells,U251 cells,near-complete cell killing
same,killing of A549 cells,A549 cells,near-complete cell killing
same,cellular protein tyrosine phosphorylation,Baf3 cells,induced protein tyrosine phosphorylation
